Measurements taken from publication PMC8305076, “Comprehensive Evaluation of Biological Effects of Pentathiepins on Various Human Cancer Cell Lines and Insights into Their Mode of Action” (International Journal of Molecular Sciences, 2021).

Test system: Siso
Test: alkaline Comet assay
Assay type: cell-based, human
Conditions: 25 µM pentathiepin or 20 µM H2O2, 15 min, 0 °C
Description: Next, the potential of the pentathiepins 1–6 to damage nuclear DNA was investigated in the cell lines HAP-1, HAP-1.KO.GPx1, and Siso, with different expression levels of GPx1 and CAT (see Figure 7), by Comet Assay (Figure 12) with representative images in the Supplementary Materials (Figure S48).
With this assay, the intensity of DNA damage can be assessed on the level of a single cell, in case of the alkaline version detecting both single and double strand breaks as well as alkali-labile sites. The method presented here is an adaptation of the protocol published by Olive and Banath and based on the distinct electrophoretic mobility of damaged and intact genomic DNA. The latter has a low mobility; does thus not migrate in the electric field; and remains in a nucleoid shape after lysis, referred to as the comet head. In contrast, when strand breaks are created, free charged ends emerge and increase the electrophoretic mobility, prompting DNA segments to drift away from the comet head, thereby forming the so-called comet tail. As descriptor of still intact genomic DNA, the percentage of DNA in the comet head was selected. Per condition, 50,000 cells of either Siso, HAP-1, or HAP-1.KO.GPx1 were diluted in 1 mL of PBS and subsequently treated with either a 1% DMF aqueous solution as negative control, 20 µM of H2O2 as positive control, or 25 µM of pentathiepin for 15 min on ice to impair intracellular DNA repair mechanisms. Afterwards, 400 µL of the cell suspension was blended with 1.2 mL of a 1% low melting point agarose solution (40 °C) and smoothly distributed on agarose-precoated glass slides. Polymerization was finished after 3 min at RT, and the slides were horizontally submerged in alkaline lysis buffer (1.2 M NaCl, 0.1% N-lauryl-sarcosinate, 0.1 M Na-EDTA, 0.26 M NaOH) before storing them at 4 °C overnight. The slides were then rinsed three times in rinse/electrophoresis buffer (0.002 M Na-EDTA, 0.03 M NaOH) before electrophoretic separation was performed for 25 min at 0.6 V/cm. A neutralization step by adding distilled water was followed by staining the slides with 250 µL of an aqueous 10 µg/mL PI solution for 20 min. For visualization and image capturing, a DMi8 fluorescent microscope and LASX software (Leica Microsystems, Wetzlar, Germany) were used, and the comets scored with the help of CometScore2.0 (rexhoover.com). Per condition and replicate, at least 100 comets were analyzed to calculate a mean level of damage.

`CCOc1c2c(c3ccc(C(=O)N4CCCCC4)cn13)SSSSS2` [Compound 2, (6-Ethoxy-[1,2,3,4,5]pentathiepino[6,7-a]indolizin-9-yl)(piperidinyl)methanone] was tested, and the “intact genomic DNA (Comet head)” value was 30%.
